Laboratory results from ChEMBL document CHEMBL5512632, “Unlocking the potential of 1,4-naphthoquinones: A comprehensive review of their anticancer properties” (Eur J Med Chem, 2024).
One block for each compound: values may come before it.

Legend:
K562 = test: Antiproliferative activity against human K562 cells assessed as inhibition of cell growth incubated for 72 hrs by MTT assay; type: functional, cell-based; details: K562, 72 h
HeLa [1] = test: Antiproliferative activity against human HeLa cells assessed as inhibition of cell growth incubated for 48 hrs by MTT assay; type: functional, cell-based
SH-SY5Y = test: Antiproliferative activity against human SH-SY5Y cells assessed as inhibition of cell growth incubated for 48 hrs by MTT assay; type: functional, cell-based
SAOS-2 = test: Antiproliferative activity against human SAOS-2 cells assessed as inhibition of cell growth incubated for 48 hrs by MTT assay; type: functional, cell-based; details: SAOS-2, 48 h
U2OS = test: Antiproliferative activity against human U2OS cells assessed as inhibition of cell growth incubated for 48 hrs by MTT assay; type: functional, cell-based
HepG2 [2] = test: Cytotoxicity against human HepG2 cells incubated for 48 hrs by MTT assay; type: functional, cell-based; details: HepG2, 48 h
HeLa [3] = test: Cytotoxicity against human HeLa cells incubated for 48 hrs by MTT assay; type: functional, cell-based
HCT-116 [4] = test: Antiproliferative activity against human HCT-116 cells assessed as inhibition of cell growth incubated for 48 hrs by MTS assay; type: functional, cell-based; details: HCT-116, 48 h
MCF7 [5] = test: Antiproliferative activity against human MCF7 cells assessed as inhibition of cell growth incubated for 48 hrs by MTS assay; type: functional, cell-based; details: MCF7, 48 h
HeLa [6] = test: Antiproliferative activity against human HeLa cells assessed as inhibition of cell growth incubated for 48 hrs by MTS assay; type: functional, cell-based
NCI-H1299 = test: Antiproliferative activity against human NCI-H1299 cells assessed as inhibition of cell growth incubated for 48 hrs by MTS assay; type: functional, cell-based; details: NCI-H1299, 48 h
B16 [7] = test: Antiproliferative activity against mouse B16 cells assessed as inhibition of cell growth incubated for 48 hrs by MTS assay; type: functional, cell-based; details: B16, 48 h
MCF7 [8] = test: Cytotoxicity against human MCF7 cells assessed as inhibition of cell growth incubated for 72 hrs by resazurin assay; type: functional, cell-based; details: MCF7, 72 h
Huh-7 = test: Cytotoxicity against human Huh-7 cells assessed as inhibition of cell growth incubated for 72 hrs by resazurin assay; type: functional, cell-based; details: Huh-7, 72 h
HCT-116 [9] = test: Cytotoxicity against human HCT-116 cells assessed as inhibition of cell growth incubated for 72 hrs by resazurin assay; type: functional, cell-based; details: HCT-116, 72 h
U-87 MG = test: Cytotoxicity against human U87 cells assessed as inhibition of cell growth incubated for 72 hrs by resazurin assay; type: functional, cell-based, U-87MG ATCC
MDA-MB-231 [10] = test: Cytotoxicity against human MDA-MB-231 cells assessed as inhibition of cell growth incubated for 72 hrs by resazurin assay; type: functional, cell-based; details: MDA-MB-231, 72 h
MCF7 [11] = test: Growth inhibition of human MCF7 cells incubated for 48 hrs by Sulforhodamine B reagent based spectrophotometric assay; type: functional
MDA-MB-231 [12] = test: Growth inhibition of human MDA-MB-231 cells incubated for 48 hrs by Sulforhodamine B reagent based spectrophotometric assay; type: functional
A549 [13] = test: Cytotoxicity against human A549 cells incubated for 20 hrs by MTT assay; type: functional, cell-based; details: A549, 20 h
HCT-116 [14] = test: Antiproliferative activity against human HCT-116 cells assessed as inhibition of cell growth incubated for 24 hrs by BrdU incorporation assay; type: functional, cell-based; details: HCT-116, 24 h
HT-29 = test: Antiproliferative activity against human HT-29 cells assessed as inhibition of cell growth incubated for 24 hrs by BrdU incorporation assay; type: functional, cell-based; details: HT-29, 24 h
A2780 = test: Antiproliferative activity against human A2780 cells assessed as inhibition of cell growth incubated for 48 hrs by MTT reagent based spectrophotometric analysis; type: functional; details: A2780, 48 h
SK-OV-3 = test: Antiproliferative activity against human SK-OV-3 cells assessed as inhibition of cell growth incubated for 48 hrs by MTT reagent based spectrophotometric analysis; type: functional; details: SK-OV-3, 48 h
OVCAR-3 = test: Antiproliferative activity against human OVCAR-3 cells assessed as inhibition of cell growth incubated for 48 hrs by MTT reagent based spectrophotometric analysis; type: functional; details: OVCAR-3, 48 h
A549 [15] = test: Antiproliferative activity against human A549 cells assessed as inhibition of cell growth incubated for 24 hrs by trypan blue exclusion assay; type: functional, cell-based; details: A549, 24 h
MCF7 [16] = test: Antiproliferative activity against human MCF7 cells assessed as inhibition of cell growth incubated for 48 hrs by MTT reagent based spectrophotometric analysis; type: functional; details: MCF7, 48 h
HepG2 [17] = test: Antiproliferative activity against human HepG2 cells assessed as inhibition of cell growth incubated for 48 hrs by MTT reagent based spectrophotometric analysis; type: functional; details: HepG2, 48 h
SK-MEL-28 = test: Cytotoxicity against human SK-MEL-28 cells incubated for 48 hrs by MTT assay; type: functional, cell-based; details: SK-MEL-28, 48 h
HEC-1-A = test: Cytotoxicity against human HEC-1-A cells incubated for 48 hrs by MTT assay; type: functional, cell-based
Calu-1 = test: Cytotoxicity against human Calu-1 cells incubated for 48 hrs by MTT assay; type: functional, cell-based; details: Calu-1, 48 h
A549 [18] = test: Cytotoxicity against human A549 cells assessed as inhibition of cell growth incubated for 48 hrs by MTT assay; type: functional, cell-based; details: A549, 48 h
DU-145 = test: Cytotoxicity against human DU-145 cells assessed as inhibition of cell growth incubated for 48 hrs by MTT assay; type: functional, cell-based; details: DU-145, 48 h
HeLa [19] = test: Cytotoxicity against human HeLa cells assessed as inhibition of cell growth incubated for 48 hrs by MTT assay; type: functional, cell-based
MCF7 [20] = test: Cytotoxicity against human MCF7 cells assessed as inhibition of cell growth incubated for 48 hrs by MTT assay; type: functional, cell-based; details: MCF7, 48 h
B16 [21] = test: Cytotoxicity against mouse B16 cells assessed as inhibition of cell growth incubated for 48 hrs by MTT assay; type: functional, cell-based; details: B16, 48 h

- IC50 (K562): 5.8 µM
Compound: O=C1C=C(Nc2ccc(S(=O)(=O)c3ccc(NC(=S)N4CCCCC4)cc3)cc2)C(=O)c2ccccc21

- IC50 (HeLa [1]): 0.54 µM
- IC50 (SH-SY5Y): 0.87 µM
- IC50 (U2OS): 1.81 µM
Compound: CC(=O)N[C@@H](CSC1=CC(=O)c2ccccc2C1=O)C(=O)O
- IC50 (SAOS-2): 1.67 µM

Compound: C[C@@H](CC[C@H]1O[C@H]2C[C@H]3[C@@H]4CC=C5C[C@@H](O)CC[C@]5(C)[C@H]4CC[C@]3(C)[C@H]2[C@@H]1C)COC1=C(Cl)C(=O)c2ccccc2C1=O
- IC50 (HepG2 [2]): 1.24 µM
- IC50 (HeLa [3]): 14.1 µM

- IC50 (HCT-116 [4]): 0.088 µM
- IC50 (MCF7 [5]): 0.069 µM
- IC50 (HeLa [6]): 0.122 µM
- IC50 (NCI-H1299): 0.109 µM
- IC50 (B16 [7]): 0.104 µM
Compound: CN(C)C(=S)SCC1=C(CSC(=S)N(C)C)C(=O)c2ccccc2C1=O

Compound: CCOC(=O)C(NC1=C(Cl)C(=O)c2ccccc2C1=O)C(C)=O (stereo unspecified)
- IC50 (MCF7 [8]): 24.5 µM
- IC50 (Huh-7): 18.3 µM
- IC50 (HCT-116 [9]): 13.9 µM
- IC50 (U-87 MG): 18.9 µM
- IC50 (MDA-MB-231 [10]): 15.9 µM

- GI50 (MCF7 [11]): 5.8 µM
- GI50 (MDA-MB-231 [12]): 5 µM
Compound: O=C1C(Cl)=C(N2CCN(Cc3ccc4c(c3)OCO4)CC2)C(=O)c2ccccc21

Compound: O=C1C(Cl)=C(Nc2ccccc2)C(=O)c2ccccc21
- IC50 (A549 [13]): 5.8 µM

- IC50 (HCT-116 [14]): 10.3 µM
- IC50 (HT-29): 23.2 µM
Compound: O=C1C(Cl)=C(Oc2ccc(-c3oc4cc(O)cc(O)c4c(=O)c3O)cc2O)C(=O)c2ccccc21

- IC50 (A2780): 5.6 µM
- IC50 (SK-OV-3): 2.8 µM
- IC50 (OVCAR-3): 6.8 µM
Compound: O=C1C=C(N(Cc2ccccn2)Cc2ccccn2)C(=O)c2ccccc21

- IC50 (A549 [15]): 2.08 µM
Compound: CCCC[S+]([O-])C1=CC(=O)c2ccccc2C1=O (stereo unspecified)

- IC50 (MCF7 [16]): 8.49 µM
- IC50 (HepG2 [17]): 0.07 µM
Compound: O=C1C(Cl)=C(NNc2nnc3n2N=C(c2ccc(Cl)cc2)CS3)C(=O)c2ccccc21

Compound: O=C1C(Cl)=C(NCCN2CCOCC2)C(=O)c2ccccc21
- IC50 (SK-MEL-28): 10.3 µM
- IC50 (HEC-1-A): 14.5 µM
- IC50 (Calu-1): 4.39 µM

Compound: CCc1ccc(-c2cn(CCNC3=C(C)C(=O)c4ccccc4C3=O)nn2)cc1
- IC50 (A549 [18]): 9.19 µM
- IC50 (DU-145): 8.02 µM
- IC50 (HeLa [19]): 26.2 µM
- IC50 (MCF7 [20]): 8.73 µM
- IC50 (B16 [21]): 20.2 µM
